Reference: ChEMBL document CHEMBL5442175, “EUbOPEN Chemogenomics Library - PDSP Secondary Binding” (2024)
Structures can show the parent of a compound that is named as a salt.

Legend:
[1] = target: T1, Alpha-1D adrenergic receptor (Homo sapiens, UniProt P25100); assay: (§1) PDSP Secondary Binding target: ADRA1D - Compounds are tested at 10 uM concentration, plate are incubated at room temperature in the dark for 90 minutes. Reaction are stopped by vacuum filtration onto 0.3% polyethyleneimine soaked filter mats using Filtermate harvester. Scintillation cocktail is then melted onto microwave-dried filters on a hot plate and the radio activity is counted in Microbia counter.
T1 sequence (P25100 whole entry): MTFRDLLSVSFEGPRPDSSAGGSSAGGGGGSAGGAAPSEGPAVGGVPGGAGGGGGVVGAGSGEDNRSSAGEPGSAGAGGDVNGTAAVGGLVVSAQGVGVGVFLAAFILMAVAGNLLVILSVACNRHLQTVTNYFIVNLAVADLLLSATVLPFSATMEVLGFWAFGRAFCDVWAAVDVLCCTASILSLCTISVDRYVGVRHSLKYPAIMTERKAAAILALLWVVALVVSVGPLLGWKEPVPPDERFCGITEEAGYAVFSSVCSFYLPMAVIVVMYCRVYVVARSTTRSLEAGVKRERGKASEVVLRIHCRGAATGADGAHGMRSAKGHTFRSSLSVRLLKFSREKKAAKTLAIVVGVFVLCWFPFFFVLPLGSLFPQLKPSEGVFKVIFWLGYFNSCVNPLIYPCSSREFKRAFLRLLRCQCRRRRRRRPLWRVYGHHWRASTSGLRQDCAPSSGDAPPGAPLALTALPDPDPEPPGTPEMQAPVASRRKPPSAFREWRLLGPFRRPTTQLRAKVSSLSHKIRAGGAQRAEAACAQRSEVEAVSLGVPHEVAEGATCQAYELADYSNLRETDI

[2] = target: Beta-3 adrenergic receptor (Homo sapiens, UniProt P13945); assay: as §1, with “ADRB3” for “ADRA1D”
Chain of Beta-3 adrenergic receptor (P13945 whole entry): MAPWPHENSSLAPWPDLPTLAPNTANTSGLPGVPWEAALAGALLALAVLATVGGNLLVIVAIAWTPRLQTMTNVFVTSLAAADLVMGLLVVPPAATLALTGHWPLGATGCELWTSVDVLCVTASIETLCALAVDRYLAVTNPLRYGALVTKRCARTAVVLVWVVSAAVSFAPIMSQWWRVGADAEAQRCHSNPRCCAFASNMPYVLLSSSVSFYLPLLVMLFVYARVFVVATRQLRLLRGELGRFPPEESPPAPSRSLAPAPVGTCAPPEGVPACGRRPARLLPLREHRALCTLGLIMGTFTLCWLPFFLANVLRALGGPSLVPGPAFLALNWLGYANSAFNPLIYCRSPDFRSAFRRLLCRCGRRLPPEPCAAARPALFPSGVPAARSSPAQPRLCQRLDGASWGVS

[3] = target: T2, Alpha-1B adrenergic receptor (Homo sapiens, UniProt P35368); assay: as §1, with “ADRA1B” for “ADRA1D”
T2 sequence (P35368 whole entry): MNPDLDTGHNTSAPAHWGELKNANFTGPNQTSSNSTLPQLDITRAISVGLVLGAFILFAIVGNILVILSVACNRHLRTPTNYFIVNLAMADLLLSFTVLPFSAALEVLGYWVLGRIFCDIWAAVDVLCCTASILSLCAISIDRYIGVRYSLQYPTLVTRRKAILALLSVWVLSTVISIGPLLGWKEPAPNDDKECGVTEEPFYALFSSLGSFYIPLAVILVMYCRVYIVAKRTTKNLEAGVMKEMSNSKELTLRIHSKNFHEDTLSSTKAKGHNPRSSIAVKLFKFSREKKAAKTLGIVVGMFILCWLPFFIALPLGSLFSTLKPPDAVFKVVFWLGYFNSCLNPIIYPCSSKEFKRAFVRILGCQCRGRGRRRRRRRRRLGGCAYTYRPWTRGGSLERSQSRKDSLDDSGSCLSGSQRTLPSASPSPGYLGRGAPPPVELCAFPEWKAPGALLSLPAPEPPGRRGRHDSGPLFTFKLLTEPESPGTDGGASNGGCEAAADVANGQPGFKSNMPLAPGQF

[4] = target: Sodium-dependent serotonin transporter (Homo sapiens, UniProt P31645); assay: as §1, with “SLC6A4” for “ADRA1D”
Chain of Sodium-dependent serotonin transporter (P31645 whole entry): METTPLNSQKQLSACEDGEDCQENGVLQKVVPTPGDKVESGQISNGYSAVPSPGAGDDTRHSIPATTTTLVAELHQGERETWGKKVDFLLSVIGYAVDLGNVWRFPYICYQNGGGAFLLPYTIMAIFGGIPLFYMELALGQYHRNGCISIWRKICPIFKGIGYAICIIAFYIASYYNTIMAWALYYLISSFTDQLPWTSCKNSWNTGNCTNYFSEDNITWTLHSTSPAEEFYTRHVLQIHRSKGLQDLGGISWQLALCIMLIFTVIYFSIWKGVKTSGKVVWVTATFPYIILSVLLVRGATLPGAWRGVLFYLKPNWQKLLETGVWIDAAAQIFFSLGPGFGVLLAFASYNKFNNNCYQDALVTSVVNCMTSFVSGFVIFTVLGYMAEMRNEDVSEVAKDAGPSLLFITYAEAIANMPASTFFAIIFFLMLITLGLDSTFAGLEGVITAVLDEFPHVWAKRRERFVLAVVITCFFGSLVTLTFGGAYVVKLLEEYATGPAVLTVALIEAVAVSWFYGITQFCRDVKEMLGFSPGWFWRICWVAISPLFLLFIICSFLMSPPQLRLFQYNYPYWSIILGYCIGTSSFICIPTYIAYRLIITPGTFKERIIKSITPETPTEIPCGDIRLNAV

[5] = target: T3, 5-hydroxytryptamine receptor 1A (Homo sapiens, UniProt P08908); assay: as §1, with “HTR1A” for “ADRA1D”
T3 sequence (P08908 whole entry): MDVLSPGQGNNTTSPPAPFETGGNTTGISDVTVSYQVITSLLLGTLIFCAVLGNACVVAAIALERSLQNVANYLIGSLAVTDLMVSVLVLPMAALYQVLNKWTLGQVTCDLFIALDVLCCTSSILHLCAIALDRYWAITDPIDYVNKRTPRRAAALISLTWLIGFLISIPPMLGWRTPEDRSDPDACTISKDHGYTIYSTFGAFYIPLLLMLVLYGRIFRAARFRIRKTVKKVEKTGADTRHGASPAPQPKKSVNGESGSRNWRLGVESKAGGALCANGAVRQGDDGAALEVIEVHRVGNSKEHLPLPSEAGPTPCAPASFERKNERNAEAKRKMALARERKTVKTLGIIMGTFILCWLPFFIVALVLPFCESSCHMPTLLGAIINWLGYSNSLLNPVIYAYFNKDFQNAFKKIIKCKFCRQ

D(1B) dopamine receptor = D(1B) dopamine receptor (Homo sapiens, UniProt P21918); assay: as §1, with “DRD5” for “ADRA1D”
Chain of D(1B) dopamine receptor (P21918 whole entry): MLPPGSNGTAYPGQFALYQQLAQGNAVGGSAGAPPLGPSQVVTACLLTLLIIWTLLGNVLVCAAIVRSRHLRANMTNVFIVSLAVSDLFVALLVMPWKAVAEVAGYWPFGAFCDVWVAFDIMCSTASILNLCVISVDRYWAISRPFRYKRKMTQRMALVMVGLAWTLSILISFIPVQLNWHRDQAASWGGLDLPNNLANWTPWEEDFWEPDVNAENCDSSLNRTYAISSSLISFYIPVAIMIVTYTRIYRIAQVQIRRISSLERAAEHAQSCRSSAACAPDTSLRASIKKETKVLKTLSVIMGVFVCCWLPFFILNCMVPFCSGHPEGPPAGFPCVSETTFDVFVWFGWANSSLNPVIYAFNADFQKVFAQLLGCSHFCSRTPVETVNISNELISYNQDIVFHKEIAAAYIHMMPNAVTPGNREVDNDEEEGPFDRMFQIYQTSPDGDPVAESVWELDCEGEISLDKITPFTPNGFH

[6] = target: 5-hydroxytryptamine receptor 1B (Homo sapiens, UniProt P28222); assay: as §1, with “HTR1B” for “ADRA1D”
Chain of 5-hydroxytryptamine receptor 1B (P28222 whole entry): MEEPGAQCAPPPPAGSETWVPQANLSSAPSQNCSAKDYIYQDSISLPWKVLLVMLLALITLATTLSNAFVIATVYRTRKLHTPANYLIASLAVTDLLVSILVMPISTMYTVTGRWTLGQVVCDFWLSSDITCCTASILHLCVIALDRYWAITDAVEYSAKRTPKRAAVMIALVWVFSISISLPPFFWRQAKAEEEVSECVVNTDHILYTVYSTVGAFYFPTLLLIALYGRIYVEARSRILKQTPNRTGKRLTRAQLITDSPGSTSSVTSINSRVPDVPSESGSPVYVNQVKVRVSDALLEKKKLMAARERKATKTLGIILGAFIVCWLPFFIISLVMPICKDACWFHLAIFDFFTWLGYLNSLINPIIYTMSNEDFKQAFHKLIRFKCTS

[7] = target: 5-hydroxytryptamine receptor 1D (Homo sapiens, UniProt P28221); assay: as §1, with “HTR1D” for “ADRA1D”
Chain of 5-hydroxytryptamine receptor 1D (P28221 whole entry): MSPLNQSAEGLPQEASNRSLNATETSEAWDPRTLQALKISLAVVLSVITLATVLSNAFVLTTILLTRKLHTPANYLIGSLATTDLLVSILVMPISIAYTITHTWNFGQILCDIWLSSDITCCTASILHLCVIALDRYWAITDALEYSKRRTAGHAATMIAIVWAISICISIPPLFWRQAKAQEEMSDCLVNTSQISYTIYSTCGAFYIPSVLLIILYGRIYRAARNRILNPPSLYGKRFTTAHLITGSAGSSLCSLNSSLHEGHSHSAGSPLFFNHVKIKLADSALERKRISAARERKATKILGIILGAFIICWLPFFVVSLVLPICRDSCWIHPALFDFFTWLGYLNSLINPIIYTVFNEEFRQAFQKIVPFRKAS

[8] = target: Sodium-dependent dopamine transporter (Homo sapiens, UniProt Q01959); assay: as §1, with “SLC6A3” for “ADRA1D”
Chain of Sodium-dependent dopamine transporter (Q01959 whole entry): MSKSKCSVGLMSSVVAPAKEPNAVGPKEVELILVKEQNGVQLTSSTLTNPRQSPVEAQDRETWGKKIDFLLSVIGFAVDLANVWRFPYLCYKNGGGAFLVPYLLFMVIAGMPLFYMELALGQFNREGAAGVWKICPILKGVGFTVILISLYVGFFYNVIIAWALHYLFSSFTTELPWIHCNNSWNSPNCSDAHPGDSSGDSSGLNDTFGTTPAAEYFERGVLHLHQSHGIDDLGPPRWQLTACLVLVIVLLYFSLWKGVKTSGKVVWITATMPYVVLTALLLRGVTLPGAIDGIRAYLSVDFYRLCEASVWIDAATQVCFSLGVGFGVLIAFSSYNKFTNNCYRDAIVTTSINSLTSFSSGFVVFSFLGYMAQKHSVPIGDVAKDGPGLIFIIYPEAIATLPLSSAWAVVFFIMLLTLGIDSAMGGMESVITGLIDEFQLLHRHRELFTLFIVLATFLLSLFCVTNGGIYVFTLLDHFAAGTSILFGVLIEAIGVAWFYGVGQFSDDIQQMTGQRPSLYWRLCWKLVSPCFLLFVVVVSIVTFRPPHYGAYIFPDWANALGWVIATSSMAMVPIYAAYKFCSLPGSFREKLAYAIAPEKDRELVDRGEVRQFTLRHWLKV

[9] = target: 5-hydroxytryptamine receptor 5A (Homo sapiens, UniProt P47898); assay: as §1, with “HTR5A” for “ADRA1D”
Chain of 5-hydroxytryptamine receptor 5A (P47898 whole entry): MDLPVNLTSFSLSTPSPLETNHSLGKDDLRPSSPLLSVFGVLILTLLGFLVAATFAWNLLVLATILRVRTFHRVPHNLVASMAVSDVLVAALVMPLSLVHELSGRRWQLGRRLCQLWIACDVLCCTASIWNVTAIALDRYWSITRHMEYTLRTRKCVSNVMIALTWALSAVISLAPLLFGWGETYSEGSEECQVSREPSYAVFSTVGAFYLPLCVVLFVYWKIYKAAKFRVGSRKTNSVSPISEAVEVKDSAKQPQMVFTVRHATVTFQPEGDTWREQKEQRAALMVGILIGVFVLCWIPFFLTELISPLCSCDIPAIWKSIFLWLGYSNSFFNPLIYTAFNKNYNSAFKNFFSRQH

[10] = target: T4, Muscarinic acetylcholine receptor M5 (Homo sapiens, UniProt P08912); assay: as §1, with “CHRM5” for “ADRA1D”
T4 sequence (P08912 whole entry): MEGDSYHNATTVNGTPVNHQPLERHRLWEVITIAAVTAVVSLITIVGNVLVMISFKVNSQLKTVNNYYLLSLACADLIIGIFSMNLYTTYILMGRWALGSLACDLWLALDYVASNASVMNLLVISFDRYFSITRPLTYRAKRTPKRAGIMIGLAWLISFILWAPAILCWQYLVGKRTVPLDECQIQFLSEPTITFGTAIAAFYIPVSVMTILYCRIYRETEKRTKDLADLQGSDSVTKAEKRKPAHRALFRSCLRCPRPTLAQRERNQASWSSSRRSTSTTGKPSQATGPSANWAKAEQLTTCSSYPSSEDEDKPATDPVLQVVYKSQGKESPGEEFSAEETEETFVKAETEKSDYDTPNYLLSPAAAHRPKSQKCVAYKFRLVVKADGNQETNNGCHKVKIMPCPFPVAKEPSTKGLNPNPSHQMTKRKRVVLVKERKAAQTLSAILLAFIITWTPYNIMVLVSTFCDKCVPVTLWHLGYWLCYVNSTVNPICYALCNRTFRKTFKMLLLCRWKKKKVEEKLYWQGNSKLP

[11] = target: Sigma intracellular receptor 2 (Homo sapiens, UniProt Q5BJF2); assay: as §1, with “TMEM97” for “ADRA1D”
Chain of Sigma intracellular receptor 2 (Q5BJF2 whole entry): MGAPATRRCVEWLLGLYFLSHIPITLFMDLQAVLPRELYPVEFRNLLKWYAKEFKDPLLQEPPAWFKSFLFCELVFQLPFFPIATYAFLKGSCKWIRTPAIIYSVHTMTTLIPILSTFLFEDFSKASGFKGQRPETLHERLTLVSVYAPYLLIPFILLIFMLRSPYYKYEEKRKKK

[12] = target: Sodium-dependent noradrenaline transporter (Homo sapiens, UniProt P23975); assay: as §1, with “SLC6A2” for “ADRA1D”
Chain of Sodium-dependent noradrenaline transporter (P23975 whole entry): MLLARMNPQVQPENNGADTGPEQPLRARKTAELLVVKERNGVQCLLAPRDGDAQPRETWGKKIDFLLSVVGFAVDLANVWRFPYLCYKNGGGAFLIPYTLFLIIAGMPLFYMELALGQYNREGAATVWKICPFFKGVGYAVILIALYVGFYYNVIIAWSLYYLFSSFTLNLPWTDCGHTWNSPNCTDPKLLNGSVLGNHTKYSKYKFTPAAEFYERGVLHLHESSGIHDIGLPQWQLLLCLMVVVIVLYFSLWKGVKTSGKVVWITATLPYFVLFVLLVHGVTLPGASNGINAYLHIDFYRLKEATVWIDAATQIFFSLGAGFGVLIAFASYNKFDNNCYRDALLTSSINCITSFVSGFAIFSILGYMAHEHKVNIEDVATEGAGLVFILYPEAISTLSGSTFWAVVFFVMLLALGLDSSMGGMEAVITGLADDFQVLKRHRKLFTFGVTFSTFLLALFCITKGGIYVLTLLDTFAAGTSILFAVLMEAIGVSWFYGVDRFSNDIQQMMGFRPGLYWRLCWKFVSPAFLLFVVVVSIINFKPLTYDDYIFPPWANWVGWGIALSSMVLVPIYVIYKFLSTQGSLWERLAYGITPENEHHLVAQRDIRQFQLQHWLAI

[13] = target: 5-hydroxytryptamine receptor 7 (Homo sapiens, UniProt P34969); assay: as §1, with “HTR7” for “ADRA1D”
Chain of 5-hydroxytryptamine receptor 7 (P34969 whole entry): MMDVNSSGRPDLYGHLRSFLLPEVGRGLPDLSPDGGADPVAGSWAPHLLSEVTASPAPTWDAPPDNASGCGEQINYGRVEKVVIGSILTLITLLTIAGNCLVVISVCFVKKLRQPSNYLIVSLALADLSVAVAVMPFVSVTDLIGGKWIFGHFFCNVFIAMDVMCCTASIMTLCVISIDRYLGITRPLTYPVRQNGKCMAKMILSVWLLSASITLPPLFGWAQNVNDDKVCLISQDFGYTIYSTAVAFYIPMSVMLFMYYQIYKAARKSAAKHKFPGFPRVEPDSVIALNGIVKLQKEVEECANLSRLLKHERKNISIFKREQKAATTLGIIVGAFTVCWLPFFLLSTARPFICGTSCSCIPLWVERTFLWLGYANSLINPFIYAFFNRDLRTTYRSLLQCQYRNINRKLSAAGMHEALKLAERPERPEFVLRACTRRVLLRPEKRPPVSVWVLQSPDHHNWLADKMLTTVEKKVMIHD

[14] = target: T5, Alpha-2C adrenergic receptor (Homo sapiens, UniProt P18825); assay: as §1, with “ADRA2C” for “ADRA1D”
T5 sequence (P18825 whole entry): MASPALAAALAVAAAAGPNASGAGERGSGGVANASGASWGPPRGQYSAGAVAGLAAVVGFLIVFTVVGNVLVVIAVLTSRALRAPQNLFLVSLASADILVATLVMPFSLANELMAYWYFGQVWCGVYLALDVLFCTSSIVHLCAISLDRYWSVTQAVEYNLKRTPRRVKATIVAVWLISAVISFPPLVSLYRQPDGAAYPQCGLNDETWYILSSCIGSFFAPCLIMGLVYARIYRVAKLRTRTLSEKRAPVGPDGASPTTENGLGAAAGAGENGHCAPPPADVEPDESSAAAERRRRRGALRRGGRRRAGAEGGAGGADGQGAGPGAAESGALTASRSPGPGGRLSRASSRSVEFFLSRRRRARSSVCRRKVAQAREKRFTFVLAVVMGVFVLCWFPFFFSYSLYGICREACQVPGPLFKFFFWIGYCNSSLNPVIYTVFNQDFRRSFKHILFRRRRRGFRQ

[15] = target: T6, Alpha-1A adrenergic receptor (Homo sapiens, UniProt P35348); assay: as §1, with “ADRA1A” for “ADRA1D”
T6 sequence (P35348 whole entry): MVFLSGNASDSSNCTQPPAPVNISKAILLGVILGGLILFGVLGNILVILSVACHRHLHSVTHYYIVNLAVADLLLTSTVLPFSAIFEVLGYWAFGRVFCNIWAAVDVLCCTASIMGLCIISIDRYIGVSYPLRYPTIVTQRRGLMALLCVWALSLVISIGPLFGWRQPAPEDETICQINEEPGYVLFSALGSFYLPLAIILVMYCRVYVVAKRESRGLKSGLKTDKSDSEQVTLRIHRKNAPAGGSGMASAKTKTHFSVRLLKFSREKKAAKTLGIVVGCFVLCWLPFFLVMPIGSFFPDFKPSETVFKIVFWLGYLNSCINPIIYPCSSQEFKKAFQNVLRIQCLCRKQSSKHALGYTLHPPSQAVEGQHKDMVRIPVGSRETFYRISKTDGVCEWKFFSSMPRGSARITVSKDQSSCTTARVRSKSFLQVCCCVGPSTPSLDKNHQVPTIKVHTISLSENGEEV

[16] = target: T7, Alpha-2B adrenergic receptor (Homo sapiens, UniProt P18089); assay: as §1, with “ADRA2B” for “ADRA1D”
T7 sequence (P18089 whole entry): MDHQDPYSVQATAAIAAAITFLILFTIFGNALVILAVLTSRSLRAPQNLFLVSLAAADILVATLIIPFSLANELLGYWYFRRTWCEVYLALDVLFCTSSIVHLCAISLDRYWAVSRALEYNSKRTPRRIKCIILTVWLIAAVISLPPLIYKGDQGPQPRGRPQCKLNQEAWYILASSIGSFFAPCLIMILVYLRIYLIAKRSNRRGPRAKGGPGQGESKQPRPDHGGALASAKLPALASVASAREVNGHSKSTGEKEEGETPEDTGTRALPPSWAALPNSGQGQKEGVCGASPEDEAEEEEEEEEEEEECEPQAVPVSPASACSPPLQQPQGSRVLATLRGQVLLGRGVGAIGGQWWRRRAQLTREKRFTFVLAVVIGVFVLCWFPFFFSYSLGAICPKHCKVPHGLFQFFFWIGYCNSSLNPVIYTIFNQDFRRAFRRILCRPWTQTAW

Translocator protein = Translocator protein (Homo sapiens, UniProt P30536); assay: as §1, with “TSPO” for “ADRA1D”
Chain of Translocator protein (P30536 whole entry): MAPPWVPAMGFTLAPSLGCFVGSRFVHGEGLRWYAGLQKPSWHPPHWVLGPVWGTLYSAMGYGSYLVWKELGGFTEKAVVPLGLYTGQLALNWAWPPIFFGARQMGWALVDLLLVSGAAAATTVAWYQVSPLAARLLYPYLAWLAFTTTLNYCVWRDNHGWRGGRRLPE

Cc1c(OCc2cccc(-c3ccc(C(=O)O)cc3)c2)cc2c(c1C)C(=O)C(C1CCCC1)C2 (stereo not drawn)
Ki [1]: > 10 µM | Ki [2]: 5.05 µM | Ki [3]: > 10 µM | Ki [4]: > 10 µM

O=C(O)c1cc(-c2ccc(C3CCNCC3)cc2)c2ccc(-c3ccc(C(F)(F)F)cc3)cc2c1
Ki [5]: 2.54 µM | Ki (D(1B) dopamine receptor): 1.05 µM | Ki [6]: 1.16 µM | Ki [7]: 1.19 µM | Ki [8]: 1.22 µM | Ki [9]: 2.4 µM | Ki [10]: 2.19 µM | Ki [11]: 1.06 µM | Ki [12]: 1.85 µM | Ki [13]: 3.3 µM

Cc1cccc([C@H](C)c2cnc[nH]2)c1C [DEXMEDETOMIDINE HYDROCHLORIDE]
Ki [14]: 0.0394 µM | Ki [15]: 0.749 µM | Ki [3]: 2.98 µM | Ki [12]: 3.26 µM | Ki [16]: 0.0121 µM | Ki [13]: 0.923 µM

COc1ccnc(N2CCC3(CCCN(Cc4c[nH]c5ccccc45)C3=O)CC2)n1
Ki [5]: 3.26 µM | Ki (Translocator protein): 0.803 µM | Ki [10]: > 10 µM
